According to US20260001893A1, “SMALL MOLECULE MODULATORS OF STAT6” (Gilead Sciences, Inc., priority 2024, published 2026):

What follows are compounds tested on Eotaxin-3 (CCL26) release in human whole blood stimulated with IL-4 (assay: Human whole blood eotaxin-3 assay (IL-4 stimulated eotaxin-3 release)). Settings: Homo sapiens, 48 h, human whole blood stimulated with recombinant human IL-4, 48 h; given for test compounds with <80% Emax; geometric mean.
Type: cell-based
Protocol: Human Whole Blood Eotaxin-3 Assay
This was a human whole blood assay using recombinant human Interleukin 4 to stimulate the blood and measuring the ability of the test compounds to inhibit eotaxin-3 release. The biological activities of the test compounds have been tested in human whole blood stimulated with IL-4 measuring Eotaxin-3 release. The test compounds were added to 384 well clear flat-bottom plate in a 4-fold serial dilution in triplicates using a liquid handler. Human whole blood stabilized in lithium-heparin tubes was added in a volume of 65 μL per well, resulting in a final DMSO concentration of 0.5%. The plate is incubated for 2 h at 37° C. under 5% CO2/95% air. Subsequently, 5 μL of recombinant human IL-4 (R&D Systems, cat #204-ILB) was added to the wells to a final concentration of […]. The plate was incubated for 48 h at 37° C. under 5% CO2/95% air. The plate was spun down for 10 minutes at 500×g and 20 μL supernatant was harvested and transferred to a 384 well v-bottom plate using a liquid handler and stored at −20° C. until further analysis. 10 μL supernatant was used to measure the level of Eotaxin-3 (CCL26) using Human Eotaxin-3 MSD kit from Mesocsale (Cat #K251UEK-4). The assay was performed according to the manufacture instructions.
The data from the human whole blood eotaxin-3 assay is shown below for Examples 1ab3, 1ab6, 1d23, and 1d4 (where the effect in % is plotted against the test concentration in M on a log-scale).

Row | SMILES | Emax
1 | CNc1ccn(-c2ccnc3c2cc([C@H](C)N2CC=C(c4c(C)cc(C(=O)N(C)C)nc4C)CC2)n3C)c(=O)c1 (single isomer, unassigned) [Example 1m99] | < 20%
2 | [2H]C([2H])([2H])N(C(=O)c1ccc(C2CCN([C@@H](C)c3cc4c(-n5ncc(N)cc5=O)ccnc4n3C)CC2)cc1)C([2H])([2H])[2H] [Example 1af62, (S)-4-(1-(1-(4-(4-amino-6-oxopyridazin-1 (6H)-yl)-1-methyl-1H-pyrrolo[2,3-b]pyridin-2-yl)ethyl)piperidin-4-yl)-N,N-bis(methyl-d3)benzamide] | 20 to 30%
3 | CN(C)C(=O)c1ccc(C2=CCN(Cc3cc4c(-n5ccc6c(c5=O)CCN6)ccnc4n3C)CC2)cn1 [Example 1m70, N,N-dimethyl-1′-((1-methyl-4-(4-oxo-1,2,3,4-tetrahydro-5H-pyrrolo[3,2-c]pyridin-5-yl)-1H-pyrrolo[2,3-b]pyridin-2-yl)methyl)-1′, 2′, 3′, 6′-tetrahydro-[3,4′-bipyridine]-6-carboxamide] | 20 to 30%
4 | Cc1cc(C(=O)N(C)C)cc(F)c1C1CCN([C@H](C)c2cc3c(-n4ccc5c(c4=O)CCN5)ccnc3n2C)CC1 (single isomer, unassigned) [Example 1m120] | 40 to 50%
5 | [2H]C([2H])([2H])N(C(=O)c1ccc(C2CCN(Cc3cc4c(-n5ccc6c(c5=O)CCN6)ccnc4n3C)CC2)cc1)C([2H])([2H])[2H] [Example 1d24, 4-[1-[[1-Methyl-4-(4-oxo-2,3-dihydro-1H-pyrrolo[3,2-c]pyridin-5-yl)pyrrolo[2,3-b]pyridin-2-yl]methyl]-4-piperidyl]-N,N-bis(trideuteriomethyl)benzamide] | 70 to 80%
6 | Cc1cc(C(=O)N(C)C)nnc1C1=CCN(Cc2cc3c(-n4ccc5c(c4=O)CCN5)ccnc3n2C)CC1 [Example 1m81, N,N,5-trimethyl-6-(1-((1-methyl-4-(4-oxo-1,2,3,4-tetrahydro-5H-pyrrolo[3,2-c]pyridin-5-yl)-1H-pyrrolo[2,3-b]pyridin-2-yl)methyl)-1,2,3,6-tetrahydropyridin-4-yl)pyridazine-3-carboxamide] | 30 to 40%

Same assay, conditions: Homo sapiens, 48 h, human whole blood stimulated with recombinant human IL-4, 48 h; inhibition of eotaxin-3 release; given for test compounds with >80% Emax; geometric mean

Row | SMILES | EC50
7 | CNc1ccn(-c2ccnc3c2cc(CN2CCC(c4c(F)cc(C(=O)N(C)C)cc4F)CC2)n3C)c(=O)n1 [Example 1m95, 3,5-difluoro-N,N-dimethyl-4-(1-((1-methyl-4-(4-(methylamino)-2-oxopyrimidin-1 (2H)-yl)-1H-pyrrolo[2,3-b]pyridin-2-yl)methyl)piperidin-4-yl)benzamide] | 0.0446 µM
8 | CNc1ccn(-c2ccnc3c2cc(CN2CC=C(c4c(C)cc(C(=O)N(C)C)cc4Cl)CC2)n3C)c(=O)c1 [Example 1m57, 3-Chloro-N,N,5-trimethyl-4-(1-((1-methyl-4-(4-(methylamino)-2-oxopyridin-1 (2H)-yl)-1H-pyrrolo[2,3-b]pyridin-2-yl)methyl)-1,2,3,6-tetrahydropyridin-4-yl)benzamide] | 0.027 µM
9 | CNc1ccn(-c2ccnc3c2cc(CN2CC=C(c4c(C)cc(C(=O)N(C)C)cc4F)CC2)n3C)c(=O)c1C [Example 1m104, 3-fluoro-N,N,5-trimethyl-4-(1-((1-methyl-4-(3-methyl-4-(methylamino)-2-oxopyridin-1 (2H)-yl)-1H-pyrrolo[2,3-b]pyridin-2-yl)methyl)-1,2,3,6-tetrahydropyridin-4-yl)benzamide] | 0.156 µM
10 | [2H]C([2H])([2H])N(C(=O)c1cc(C)c(C2=CCN(Cc3cc4c(-n5ccc6c(c5=O)CCN6)ccnc4n3C)CC2)c(F)c1)C([2H])([2H])[2H] [Example 1ad7, 3-Fluoro-5-methyl-N,N-bis(methyl-d3)-4-(1-((1-methyl-4-(4-oxo-1,2,3,4-tetrahydro-5H-pyrrolo[3,2-c]pyridin-5-yl)-1H-pyrrolo[2,3-b]pyridin-2-yl)methyl)-1,2,3,6-tetrahydropyridin-4-yl)benzamide] | 0.0068 µM
11 | CNc1ccn(-c2ccnc3c2cc(CN2CC=C(c4c(C)cc(C(=O)N(C)C)cc4F)CC2)n3C)c(=O)c1 [Example 1m56, 3-Fluoro-N,N,5-trimethyl-4-(1-((1-methyl-4-(4-(methylamino)-2-oxopyridin-1 (2H)-yl)-1H-pyrrolo[2,3-b]pyridin-2-yl)methyl)-1,2,3,6-tetrahydropyridin-4-yl)benzamide] | 0.00364 µM
12 | CNc1ccn(-c2ccnc3c2cc(CN2CC=C(c4ncc(C(=O)N(C)C)cc4C(F)(F)F)CC2)n3C)c(=O)c1 [Example 1m69, N,N-Dimethyl-6-[1-[[1-methyl-4-[4-(methylamino)-2-oxo-1-pyridyl]pyrrolo[2,3-b]pyridin-2-yl]methyl]-3,6-dihydro-2H-pyridin-4-yl]-5-(trifluoromethyl)pyridine-3-carboxamide] | 0.319 µM
13 | CN(C)C(=O)c1cc(F)c(C2=CCN(Cc3cc4c(-n5ccc6c(c5=O)CCN6)ccnc4n3C)CC2)c(C2CC2)c1 (single isomer, unassigned) [Example 1m135, 3-cyclopropyl-5-fluoro-N,N-dimethyl-4-(1-((1-methyl-4-(4-oxo-1,2,3,4-tetrahydro-5H-pyrrolo[3,2-c]pyridin-5-yl)-1H-pyrrolo[2,3-b]pyridin-2-yl)methyl)-1,2,3,6-tetrahydropyridin-4-yl)benzamide] | 0.0121 µM
14 | [2H]C([2H])([2H])N(C(=O)c1cc(C)c(C2=CCN(Cc3cc4c(-n5ccc(N)c(C)c5=O)ccnc4n3C)CC2)c(F)c1)C([2H])([2H])[2H] [Example 1m94, 4-(1-((4-(4-amino-3-methyl-2-oxopyridin-1 (2H)-yl)-1-methyl-1H-pyrrolo[2,3-b]-pyridin-2-yl)methyl)-1,2,3,6-tetrahydropyridin-4-yl)-3-fluoro-5-methyl-N,N-bis(methyl-d3)benzamide] | 0.00665 µM
15 | CNc1cc(=O)n(-c2ccnc3c2cc([C@H](C)N2CCC(c4c(C)cc(C(=O)N(C)C)cc4F)CC2)n3C)cc1F [Example 1m131, (S)-3-fluoro-4-(1-(1-(4-(5-fluoro-4-(methylamino)-2-oxopyridin-1 (2H)-yl)-1-methyl-1H-pyrrolo[2,3-b]pyridin-2-yl)ethyl)piperidin-4-yl)-N,N,5-trimethylbenzamide] | 0.891 µM
16 | CNc1cc(=O)n(-c2ccnc3c2cc([C@H](C)N2CC=C(c4c(C)cc(C(=O)N(C)C)cc4F)CC2)n3C)cc1OC [Example 1m137, (S)-3-fluoro-4-(1-(1-(4-(5-methoxy-4-(methylamino)-2-oxopyridin-1 (2H)-yl)-1-methyl-1H-pyrrolo[2,3-b]pyridin-2-yl)ethyl)-1,2,3,6-tetrahydropyridin-4-yl)-N,N,5-trimethylbenzamide] | 0.589 µM
17 | CNc1ccn(-c2ccnc3c2cc([C@@H](C)N2CC=C(c4c(C)cc(C(=O)N(C)C)nc4C)CC2)n3C)c(=O)c1 (single isomer, unassigned) [Example 1m100] | 0.44 µM
18 | CNc1ccn(-c2ccnc3c2cc([C@@H](C)N2CC[C@@H](c4c(C)cc(C(=O)N(C)C)cc4F)C(F)(F)C2)n3C)c(=O)c1 (single isomer, unassigned) [Example 1m143] | 0.855 µM
19 | [2H]C([2H])([2H])N(C(=O)c1cc(C)c(C2=CCN([C@@H](C)c3cc4c(-n5ccc(NC)cc5=O)ccnc4n3C)CC2)c(F)c1)C([2H])([2H])[2H] [Example 1af83, (S)-3-fluoro-5-methyl-N,N-bis(methyl-d3)-4-(1-(1-(1-methyl-4-(4-(methylamino)-2-oxopyridin-1 (2H)-yl)-1H-pyrrolo[2,3-b]pyridin-2-yl)ethyl)-1,2,3,6-tetrahydropyridin-4-yl)benzamide] | 0.00267 µM
20 | Cc1cc(C(=O)N(C)C)ccc1C1=CCN([C@H](C)c2cc3c(-n4ccc(N)c(F)c4=O)ccnc3n2C)CC1 [Example 1m86, (R)-4-(1-(1-(4-(4-amino-3-fluoro-2-oxopyridin-1 (2H)-yl)-1-methyl-1H-pyrrolo[2,3-b]pyridin-2-yl)ethyl)-1,2,3,6-tetrahydropyridin-4-yl)-N,N,3-trimethylbenzamide] | 0.672 µM
21 | Cc1cc(C(=O)N(C)C)ccc1C1=CCN([C@@H](C)c2cc3c(-n4ccc(N)c(F)c4=O)ccnc3n2C)CC1 [Example 1m84, (S)-4-(1-(1-(4-(4-amino-3-fluoro-2-oxopyridin-1 (2H)-yl)-1-methyl-1H-pyrrolo[2,3-b]pyridin-2-yl)ethyl)-1,2,3,6-tetrahydropyridin-4-yl)-N,N,3-trimethylbenzamide] | 0.00369 µM
22 | CN(C)C(=O)c1ccc(C2CCN(Cc3cc4c(-n5ccc(N)c(C(=O)CCCO)c5=O)ccnc4n3C)CC2)cc1 [Example 1d44, 4-[1-[[4-[4-Amino-3-(4-hydroxybutanoyl)-2-oxo-1-pyridyl]-1-methyl-pyrrolo[2,3-b]pyridin-2-yl]methyl]-4-piperidyl]-N,N-dimethyl-benzamide] | 0.307 µM
23 | CNc1nc(=O)n(-c2ccnc3c2cc(CN2CCC(c4c(F)cc(C(=O)N(C)C)cc4F)CC2)n3C)cc1F [Example 1m118, 3,5-difluoro-4-(1-((4-(5-fluoro-4-(methylamino)-2-oxopyrimidin-1 (2H)-yl)-1-methyl-1H-pyrrolo[2,3-b]pyridin-2-yl)methyl)piperidin-4-yl)-N,N-dimethylbenzamide] | 0.0552 µM
